Experimental data from PubChem BioAssay (NCI).
Values joined by “and” are separate entries in the source; they are usually repeats but may differ in a detail not shown here. Equal values may be shown once.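 Dose response: 5 concentrations. Exposure: 48 h. Format: 96-well plates. Endpoint: linear interpolation; highest concentration if not reached. GI50 = concentration required for 50% inhibition of growth. TGI is the concentration that stops growth completely.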

Assays:
Assay in all cases: NCI-60 cell line screen, 48 h
[1] = tested on: SR leukemia
[2] = tested on: SK-OV-3 ovarian
[3] = tested on: A498 renal
[4] = tested on: IGROV1 ovarian
[5] = tested on: U251 CNS
[6] = tested on: UO-31 renal
[7] = tested on: COLO 205 colon
[8] = tested on: OVCAR-4 ovarian
[9] = tested on: M14 melanoma
[10] = tested on: MOLT-4 leukemia

Row | SMILES | GI50 [1] [nM] | TGI [1] [µM] | GI50 [2] [µM] | TGI [2] [µM] | GI50 [3] [nM] | TGI [3] [µM] | GI50 [4] [nM] | TGI [4] [µM] | GI50 [5] [µM] | TGI [5] [µM] | GI50 [6] [nM] | TGI [6] [µM] | GI50 [7] [nM] | TGI [7] [µM] | GI50 [8] [µM] | TGI [8] | GI50 [9] [µM] | TGI [9] | TGI [10] | GI50 [10] [µM]
1 | COc1ccc(-c2nc(/C=N/Nc3cc(C)nc4ccc(Br)cc34)c(C)o2)cc1 | 315 | 1.59 | 1.7 | 3.12 | 1490 | 2.89 | 1720 | 3.36 | 1.86 | 3.39 | 1520 | 2.89 | 1670 | 3.35 | 1.72 | 3.31 µM | 1.78 | 3.39 µM | – | –
2 | O=C(O)C(Cc1c[nH]c2ccccc12)N1C(=O)c2ccccc2C1=O (configuration not stated) | – | – | – | > 100 | – | > 100 | – | > 100 | – | > 100 | – | > 100 | – | > 100 | – | > 100 µM | – | > 100 µM | – | –
3 | C(/C=C/N1CCCC1)=C\c1nc(N2CCCC2)c2ccccc2n1 | – | 33.9 | – | 36.3 | – | > 100 | – | 39.6 | – | – | – | 29.2 | – | 28.5 | – | 27.8 µM | – | 33.5 µM | 52.3 µM | –
4 | O=C(/C(=N/Nc1cn[nH]c(=O)c1Cl)c1ccccc1)c1ccccc1 | – | – | – | > 100 | – | 50.4 | – | 75.1 | – | > 100 | – | > 100 | – | 49.4 | – | > 100 µM | – | > 100 µM | 97.2 µM | –
5 | COC12C=C/C(=C(/C(=O)OCc3csc(SC)n3)C(=O)CCCCCCCCC3(OC)C=C/C(=C(/C(=O)OCc4cnc(SC)s4)C(=O)CCCCCCCC1)O3)O2 (configuration not stated) | 2050 | > 100 | 9.06 | > 100 | 2440 | 21.8 | 3890 | 83.6 | 3.98 | 43.6 | 4960 | > 100 | 3440 | > 100 | 3.19 | > 100 µM | 2.62 | > 100 µM | – | –
6 | Cc1cc(N(CCC#N)CCC#N)ccc1/C=C/C(=O)Nc1ccccc1Cl | – | – | – | > 100 | – | > 100 | – | > 100 | – | > 100 | – | > 100 | – | > 100 | – | > 100 µM | – | > 100 µM | > 100 µM | –
7 | Cc1cc2c(-c3nc4ccccn4c3NC34CC5CC(CC(C5)C3)C4)c(O)c(O)cc2c(O)c1-c1c(C)cc2c(-c3nc4ccccn4c3NC34CC5CC(CC(C5)C3)C4)c(O)c(O)cc2c1O | 854 | 4.86 | 0.749 | 2.3 | 817 | > 25 | 883 | > 25 | 0.106 | 3.3 | 657 | 4.16 | 626 | 4.77 | 0.728 | > 25 µM | – | – | 10.4 µM | 0.11
8 | CC1(C)Oc2ccccc2N2O[C@@H]3C(=O)N(c4ccccc4)C(=O)[C@@H]3C21c1ccccc1 (some centres not stated) | – | – | – | 41 | – | 47.3 | – | > 100 | – | 69.1 | – | > 100 | – | > 100 | – | 34.1 µM | – | 46.4 µM | > 100 µM | –
9 | NCCn1c2c(c3ccccc3c1=O)C(=O)c1ccccc1-2 | – | – | 0.528 | 2.55 | 476 | 5.49 | 592 | > 45.8 | 0.544 | 3.59 | 458 | 5.33 | 605 | 3.99 | 0.982 | 3.48 µM | – | – | 0.095 µM | < 0.0378
10 | COc1cc(/C=C2/C(=O)N(C(=O)c3ccccc3O)N=C2C)ccc1O | – | > 100 | – | > 86.5 | – | – | – | 2.06 | – | > 100 | – | – | – | > 80.7 | – | > 100 µM | – | 35.3 µM | > 100 µM | –
11 | COc1cc(-c2nn3c(=O)n(-c4ccc(Cl)cc4)c(=O)nc3s2)cc(OC)c1OC | – | – | 33.5 | > 100 | > 50000 | > 100 | > 50000 | > 100 | – | > 69 | > 50000 | > 100 | > 50000 | > 100 | 16.1 | 50 µM and 99.8 µM | 28 | 50 µM and > 100 µM | 50 µM and > 100 µM | 30.7
12 | CN1C(=O)CC2(C)c3cc(C=O)ccc3N(C)C12 (configuration not stated) | – | – | – | > 100 | – | > 100 | – | > 100 | – | > 100 | – | > 100 | – | > 100 | – | > 100 µM | – | > 100 µM | > 100 µM | –
13 | CNc1ccc(N=Nc2cccc3ncccc23)cc1 | 16100 | > 88.7 | > 73.9 | > 100 | – | > 68.4 | – | > 100 | 31.5 | > 100 | 890 | > 100 | 2480 | > 100 | – | – | 44.3 | > 100 µM | > 100 µM | 14.2
14 | CCC1(Cl)C(=O)NC(=O)N(C2CC(O)C(CO)O2)C1N=[N+]=[N-] (configuration not stated) | – | – | – | > 100 | – | > 100 | – | > 100 | – | > 100 | – | > 100 | – | > 100 | – | > 100 µM | – | > 100 µM | > 100 µM | –
15 | O=C1Nc2ccc(Br)cc2C1=Nc1ccc(Cl)cc1 | – | > 100 | – | > 100 | – | > 100 | – | – | – | 88.8 | – | 28.9 | – | 4.71 | – | – | – | 72.2 µM | > 100 µM | –
16 | Cc1ccc2c(C(C[N+](=O)[O-])c3ccco3)c(-c3ccccc3)[nH]c2c1 (configuration not stated) | – | – | 37.2 | > 100 | 4020 | 74.3 | 24600 | > 100 | 46.2 | > 100 | 33100 | > 100 | 31700 | > 100 | 69 | > 100 µM | 12.2 | > 100 µM | > 100 µM | 30.7
17 | Cc1ccc(-c2cc(C(Cl)Cl)on2)cc1 | – | – | > 100 | > 100 | 42700 | > 100 | > 100000 | > 100 | 55.1 | > 100 | 49500 | > 100 | 35400 | > 100 | 77.6 | > 100 µM | 74.1 | > 100 µM | > 100 µM | 26.8
